For orientation: IC50 means the concentration at which inhibition is half-maximal. A low value points to higher potency.

Common to all, as to type: biochemical
Assay [1] concerns the target T1, urinary angiotensin-converting enzyme (uACE) (Homo sapiens, UniProt P12821).
T1 construct: from tissue; host or cells: human urine (native, or retentate of 10 kDa / 30 kDa Vivaspin 20 membrane filters)
Put plainly: Fluorescent kinetic uACE activity assay with ACE-specific inhibitors and inhibitors of other proteases (sensitivity testing). Particulars: for effect on measured uACE activity: peptidase inhibitors, inhibitor-free 10 kDa retentate.

For assay [2], the target named is T1, urinary angiotensin-converting enzyme (uACE). Nature of the assay: Fluorescent kinetic ACE activity assay on inhibitor-free ACE purified from urine (30 kDa retentate) with potential endogenous inhibitors. The conditions noted are these: for uACE inhibition within reference (physiological) urinary concentration range: ACE purified from urine, physiological concentration range of the molecule in urine; for IC50: ACE purified from urine (30 kDa retentate), two-phase decay fit. The method, then:
(§1) ACE activity was measured using the optimized fluorescent kinetic method previously reported by our group with different sample dilutions for each experiment.
In the final dilutional protocol, the reaction mixture contained 100 mM tris(hydroxymethyl)aminomethane hydrochloride (TRIS) buffer (pH 7.0), 15 μM Abz-FRK(Dnp)P-OH substrate (synthesized by Peptide 2.0, Chantilly, VA, USA), 50 mM NaCl, 10 μM ZnCl2, and urine at 64-fold and 128-fold final dilutions. […] Continuous recording of fluorescent intensity change was performed for 90 min with 1-min measurement intervals at 37 °C. Data points between 20 min and 80 min were used for analysis. When activity measured at 64-fold dilution exceeded that measured at 128-fold, the 64-fold results were used to avoid over-dilution bias of dilute urine samples.
Inhibitor-free ACE pre-purified on a 30 kDa Vivaspin 20 membrane filter column was used to identify inhibitors. Potential inhibitors were dissolved according to factory instructions (Urea: Cat. No.: U6504-1KG; Sigma-Aldrich, St. Louis, MO, USA; Uric acid: Cat. No.: U2625-25G; Sigma-Aldrich, St. Louis, MO, USA; Urobilinogen: Cat. No: 651-10; Lee Biosolutions, Maryland Heights, MO, USA). In the corresponding experiments, uACE with activities ranging from 0.15 to 0.53 U/L was applied. The obtained curves were fitted using the ‘two-phase decay’ equation in GraphPad Prism software, version 9 (GraphPad Software Inc., San Diego, CA, USA).

The target in assay [3] is T2, serum ACE (Homo sapiens, UniProt P12821).
T2 construct: from tissue; host or cells: serum
T2 sequence (P12821 30-1232 limits assumed): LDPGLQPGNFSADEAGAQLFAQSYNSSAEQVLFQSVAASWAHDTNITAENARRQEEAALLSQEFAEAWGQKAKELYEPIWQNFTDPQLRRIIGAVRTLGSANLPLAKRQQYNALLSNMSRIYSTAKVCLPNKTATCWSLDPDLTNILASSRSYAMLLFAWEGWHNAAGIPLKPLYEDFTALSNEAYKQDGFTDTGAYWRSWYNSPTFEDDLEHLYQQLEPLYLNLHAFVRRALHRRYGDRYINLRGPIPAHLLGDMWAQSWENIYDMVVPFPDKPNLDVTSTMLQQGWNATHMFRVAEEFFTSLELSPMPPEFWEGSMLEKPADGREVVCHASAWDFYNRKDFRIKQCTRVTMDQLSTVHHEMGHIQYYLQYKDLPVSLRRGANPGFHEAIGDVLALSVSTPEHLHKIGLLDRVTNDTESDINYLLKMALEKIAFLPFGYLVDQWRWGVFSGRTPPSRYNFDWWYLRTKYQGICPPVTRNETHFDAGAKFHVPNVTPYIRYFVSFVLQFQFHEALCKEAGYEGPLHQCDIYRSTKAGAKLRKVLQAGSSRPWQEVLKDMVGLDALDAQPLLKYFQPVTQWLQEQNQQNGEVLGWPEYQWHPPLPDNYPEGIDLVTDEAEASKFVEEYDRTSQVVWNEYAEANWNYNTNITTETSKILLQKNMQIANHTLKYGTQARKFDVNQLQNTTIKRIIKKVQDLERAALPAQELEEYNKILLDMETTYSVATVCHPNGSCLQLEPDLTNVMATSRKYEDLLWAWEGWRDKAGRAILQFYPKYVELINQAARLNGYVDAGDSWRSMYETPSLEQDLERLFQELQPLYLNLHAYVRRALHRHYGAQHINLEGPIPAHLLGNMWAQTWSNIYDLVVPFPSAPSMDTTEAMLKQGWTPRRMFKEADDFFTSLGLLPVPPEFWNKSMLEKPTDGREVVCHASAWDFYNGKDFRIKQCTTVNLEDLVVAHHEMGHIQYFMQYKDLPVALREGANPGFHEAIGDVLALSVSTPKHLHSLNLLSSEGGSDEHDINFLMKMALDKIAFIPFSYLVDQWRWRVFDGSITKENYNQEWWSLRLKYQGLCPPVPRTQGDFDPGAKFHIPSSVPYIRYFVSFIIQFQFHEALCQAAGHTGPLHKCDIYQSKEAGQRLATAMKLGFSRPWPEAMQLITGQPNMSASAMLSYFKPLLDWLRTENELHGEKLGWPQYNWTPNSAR
Nature of the assay: Serum ACE activity in the presence of phosphoramidon. Particulars: compared with effect on uACE. The method, then:
as §1

Where a name gives a salt, the structure may show the parent alone. Residues, ends and D or L forms follow the SMILES beside them. *: point of attachment. Cbz = O=C(OCc1ccccc1)*

T1 sequence (P12821 30-1232 limits assumed): as above

With `CC(C)C[C@@H](N)[C@H](O)C(=O)N[C@H](C(=O)N[C@H](C(=O)N[C@@H](CC(=O)O)C(=O)O)C(C)C)C(C)C.Cl` [Amastatin hydrochloride], the “effect on measured uACE activity” value in assay [1] is on record as “had no effect”.
For `CC(C)C[C@H](N[C@@H](Cc1cncn1Cc1cc(Cl)cc(Cl)c1)C(=O)O)C(=O)O` [MLN-4760], the “effect on measured uACE activity” value in assay [1] was “had no effect”.
Consider `NC(N)=O` [Urea], for which the “uACE inhibition within reference (physiological) urinary concentration range” value in assay [2] is given as 10–25%.
On to `O=c1[nH]c(=O)c2[nH]c(=O)[nH]c2[nH]1` [Uric acid], for which, in assay [2], the IC50 is 3.61 mM and the “uACE inhibition within reference (physiological) urinary concentration range” value is recorded as 30–50%.
Regarding `CCC1=C(C)C(Cc2[nH]c(Cc3[nH]c(CC4NC(=O)C(C)=C4CC)c(C)c3CCC(=O)O)c(CCC(=O)O)c2C)NC1=O` (stereo not drawn) [Urobilinogen], in assay [2], inhibition was half-maximal at 0.298 mM (IC50) and the “uACE inhibition within reference (physiological) urinary concentration range” value is reported as 3–20%. Further, half-maximal inhibition in assay [2] (listed as urobilinogen) (IC50) was put at 0.298 mM.
As for `O=C[C@@H]1CCCN1C(=O)[C@@H]1CCCN1C(=O)OCc1ccccc1` [Z-prolyl-prolinal] (Cbz-Pro-Pro-aldehyde), in assay [1], the “effect on measured uACE activity” value is given as “no detectable effect”.
Regarding `C[C@H](NC(=O)[C@@H]1CCCN1C(=O)[C@@H]1CCCN1C(=O)[C@@H](O)[C@H](N)Cc1ccccc1)C(N)=O` [apstatin, Apstatin], in assay [1], the “effect on measured uACE activity” value is “did not alter uACE activity”.
Regarding `CC(C)C[C@H](NC(=O)[C@@H](O)[C@H](N)Cc1ccccc1)C(=O)O` [bestatin hydrochloride, Bestatin hydrochloride], in assay [1], the “effect on measured uACE activity” value was “did not alter uACE activity”.
Consider `NCCCC[C@H](N[C@@H](CCc1ccccc1)C(=O)O)C(=O)N1CCC[C@H]1C(=O)O` [lisinopril], for which the “inhibition of ACE activity in control reactions” value in assay [1] (1 μM) is reported as “completely inhibiting ACE activity”. Besides, the “extent of uACE activity inhibition” value in assay [1] (ACE-inhibitor drugs, concentration series) is “completely inhibited”.
In the case of `CC(C)C[C@H](NP(=O)(O)O[C@@H]1O[C@@H](C)[C@H](O)[C@@H](O)[C@H]1O)C(=O)N[C@@H](Cc1c[nH]c2ccccc12)C(=O)O` [phosphoramidon disodium salt, Phosphoramidon disodium salt], the “reduction of uACE activity” value in assay [1] (1 μM concentration) is recorded as “approximately 35%”. In assay [3], the “effect on serum ACE activity” value is “comparable inhibitory effect”.

For the origin of these results see paper PMC12562155, “Interference-Free Measurement of Urinary Angiotensin-Converting Enzyme (ACE) Activity: Diagnostic and Therapeutic Monitoring Implications” (Biomedicines, 2025).
